Values joined by “and” are separate entries in the source; they are usually repeats but may differ in a detail not shown here. Identical values can stand only once.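 Values below derive from 48-hour exposures of cells grown in 96-well plates, with endpoints linearly interpolated between the two concentrations bracketing the appropriate inhibition level. The concentration for 50% growth inhibition is given as GI50. Definition used: TGI = concentration required for complete inhibition of growth.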
Legend:
Assay in all cases: NCI-60 cell line screen, 48 h
A498 renal = tested on: A498 renal
A549 NSCLC = tested on: A549 NSCLC
HCT-116 colon = tested on: HCT-116 colon
HOP-62 NSCLC = tested on: HOP-62 NSCLC
HS 578T breast = tested on: HS 578T breast
KM12 colon = tested on: KM12 colon
MCF7 breast = tested on: MCF7 breast
NCI-H460 lung = tested on: NCI-H460 lung
OVCAR-4 ovarian = tested on: OVCAR-4 ovarian
SF-295 CNS = tested on: SF-295 CNS

Structure (SMILES) | TGI (A498 renal) | TGI (A549 NSCLC) | TGI (HCT-116 colon) | TGI (HOP-62 NSCLC) | TGI (HS 578T breast) | TGI (KM12 colon) | TGI (MCF7 breast) | TGI (NCI-H460 lung) | TGI (OVCAR-4 ovarian) | TGI (SF-295 CNS) | GI50 (A498 renal) | GI50 (A549 NSCLC) | GI50 (HCT-116 colon) | GI50 (HOP-62 NSCLC) | GI50 (HS 578T breast) | GI50 (KM12 colon) | GI50 (MCF7 breast) | GI50 (NCI-H460 lung) | GI50 (OVCAR-4 ovarian) | GI50 (SF-295 CNS)
CCc1nc(N)nc(N)c1-c1ccc2nnn(O)c2c1 | > 100 µM | > 100 µM | > 100 µM | > 100 µM | > 100 µM | > 100 µM | > 100 µM | > 100 µM | > 100 µM | > 100 µM | – | – | – | – | – | – | – | – | – | –
CCCc1cc(=O)n2c(C(=O)Nc3cccc(C(=O)OCC)c3)c(C(=O)Nc3ccc(F)cc3)sc2n1 | 32.2 µM | 24.1 µM | > 140 µM | 28.8 µM | 6.37 µM | > 140 µM | > 140 µM | > 140 µM | 20.9 µM | > 140 µM | 8.57 µM | 4.32 µM | 1.06 µM | 3.54 µM | 1.3 µM | 42.5 µM | > 140 µM | 13.3 µM | 3.27 µM | 44.6 µM
C[C@@H]1CCC([C@@H](C)[C@H]2CC[C@H]3[C@@H]4CC[C@H]5C[C@@H](O)CC[C@]5(C)[C@H]4CC[C@]23C)=NC1 | > 100 µM | > 100 µM | > 100 µM | > 51.3 µM | > 100 µM | > 59.7 µM | > 54.8 µM | 48.9 µM | > 100 µM | > 43.6 µM | – | – | – | – | – | – | – | – | – | –
O=[N+]([O-])c1ccc(C2=Nn3c(nnc3-c3ccc(Cl)cc3)SC2)o1 | 31.3 µM | 48.6 µM | 15.1 µM | 24.9 µM | 18.4 µM | 27.6 µM | 4.05 µM | 17.7 µM | 6.66 µM | 23.5 µM | – | – | – | – | – | – | – | – | – | –
CCCCCCn1c(-c2ccc(C(=O)O/N=C(\N)c3ccc4ccccc4c3)cc2)nc(-c2ccccc2)c1-c1ccccc1 | > 26 µM | > 100 µM | > 100 µM | > 100 µM | > 28.7 µM | > 100 µM | > 100 µM | > 100 µM | > 100 µM | > 83.7 µM | 2.09 µM | 2.55 µM | 4.2 µM | 5.77 µM | 2.55 µM | > 100 µM | 4.3 µM | > 100 µM | > 100 µM | 11.8 µM
C[C@]12CC[C@@H]3c4cc(O)c(O)cc4CC[C@H]3[C@@H]1CC[C@@H]2O | 62.3 µM | > 82.4 µM | > 51.4 µM | 54.6 µM | 17.5 µM | 22.3 µM | 18 µM | 18.1 µM | > 100 µM | 32.9 µM | 19.7 µM | 7.16 µM | 4.4 µM | 4.08 µM | 1.98 µM | 8.23 µM | 3.07 µM | 3.75 µM | 16.2 µM | 7.19 µM
Cc1cc(O)cc(C)c1/C=C/c1cncc(C(N)=O)c1 | 17.4 µM | > 25 µM | > 25 µM | > 25 µM | 11.2 µM | > 25 µM | > 25 µM | > 25 µM | > 25 µM | > 25 µM | 1.65 µM | 3.48 µM | 1.34 µM | 2.8 µM | 1.72 µM | 1.25 µM | 1.2 µM | 1.84 µM | 14.5 µM | 2.9 µM
CCCCCCCCC/C(=N\NC(=O)c1ccncc1)c1ccc(O)c(O)c1O | > 100 µM | > 100 µM | 12.8 µM | 16 µM | > 100 µM | > 100 µM | 18.3 µM | 1.1 µM | 18 µM | > 100 µM | 1.56 µM | 0.302 µM | 0.121 µM | 0.09 µM | – | 0.348 µM | 0.309 µM | 0.0705 µM | 0.12 µM | 0.307 µM
CC1(C)CC[C@]2(C(=O)O)CC[C@]3(C)C(=CC[C@@H]4[C@@]5(C)C[C@H](O)[C@H](O)[C@@](C)(C(=O)O)[C@@H]5CC[C@]43C)[C@@H]2C1 | > 100 µM | > 100 µM | > 100 µM | > 100 µM | > 100 µM | > 100 µM | > 100 µM | > 100 µM | > 100 µM | > 100 µM | – | – | – | – | – | – | – | – | – | –
C=C1C(=O)O[C@H]2[C@H]1CC/C(C=Nc1c(N)cc(C(F)(F)F)cc1C(F)(F)F)=C\CC[C@@]1(C)O[C@@H]21 | 3.51 µM | 3.74 µM | 2.52 µM | 4.19 µM | 7.45 µM | 4.74 µM | 2.34 µM | 3.38 µM | 3.05 µM | 17.1 µM | 1.49 µM | 1.95 µM | 1.06 µM | 2 µM | 1.67 µM | 1.99 µM | 0.498 µM | 1.53 µM | 1.52 µM | 5.1 µM
CC1=CCCC2C1(C)CCC(C)C2(C)Cc1cc(O)ccc1O (stereo unspecified) | 32.9 µM and 30.3 µM | 20.5 µM and 21.6 µM | 24.8 µM and 15.7 µM | 28.9 µM and 35.7 µM | 17.9 µM | 18.7 µM | 21.7 µM and 19.8 µM | 28.9 µM and 20.5 µM | 24.8 µM and 10.8 µM | 23.5 µM and 21 µM | – | 7.14 µM | 9.85 µM | 15.2 µM | – | 5.16 µM | 7.15 µM | 7.19 µM | 3.58 µM | 10.4 µM
Cc1nc(-c2nc(-c3ccc(OC(F)(F)F)cc3)no2)nn1Cc1cccc(N2CCC(S(C)(=O)=O)CC2)c1 | 17.1 µM | > 100 µM | > 100 µM | > 100 µM | > 82.1 µM | > 100 µM | 48.6 µM | > 100 µM | > 90.6 µM | > 77 µM | < 0.0198 µM | 4.62 µM | < 0.01 µM | > 33.1 µM | > 36.9 µM | > 52.6 µM | 0.0136 µM | 5.95 µM | < 0.0137 µM | 0.0227 µM
COC(=O)C1=COC(C)C2CN3CCc4c([nH]c5cc(OC)c(OC)cc45)C3CC12 (stereo unspecified) | > 100 µM | > 100 µM | > 100 µM | > 100 µM | > 100 µM | > 100 µM | > 100 µM | > 100 µM | > 100 µM | > 100 µM | – | – | > 100 µM and 43.6 µM | – | – | > 100 µM and 37.2 µM | > 100 µM and 36.4 µM | 67.1 µM and 22.4 µM | 89.4 µM and 34.3 µM | –
COc1cc2ncnc(Nc3cccc(Cl)c3F)c2cc1OC(=O)N1CCN(C)C[C@H]1C | > 45.1 µM | > 58.2 µM | > 56.9 µM | > 66.3 µM | > 60.8 µM | > 88.5 µM | > 77.3 µM | > 82.4 µM | > 79.1 µM | > 56 µM | 3.44 µM | > 34.3 µM | > 38.5 µM | > 35.7 µM | 21 µM | > 50.5 µM | > 39 µM | > 48.8 µM | > 44.5 µM | > 38.1 µM
COc1cc2c(cc1Cc1cccc(Cl)c1F)c(=O)c(C(=O)O)cn2[C@@H](CO)C(C)C | 14.2 µM | 12.2 µM | 11.7 µM | 18.6 µM | 32.7 µM | 13.1 µM | 16.3 µM | 10.6 µM | 16.6 µM | 5.53 µM | 2.26 µM | 3.11 µM | 2.99 µM | 5.22 µM | 3.97 µM | 4.03 µM | 3.54 µM | 3.07 µM | 3.7 µM | 2.14 µM
O=c1[nH]c(=O)c2cc3cc(C4CC(O)C(CO)O4)ccc3cc2[nH]1 (stereo unspecified) | > 100 µM | > 100 µM | > 100 µM | > 100 µM | > 100 µM | – | > 100 µM | > 100 µM | > 100 µM | > 100 µM | > 100 µM | > 100 µM | > 100 µM | > 100 µM | > 100 µM | – | > 100 µM | > 100 µM | 58.7 µM | > 100 µM
N#Cc1c(N)n2c(nc1=Nc1ccc(Cl)cc1)sc1cc(Cl)ccc12 | 9.62 µM | – | > 100 µM | 30.1 µM | 5.92 µM | – | > 100 µM | > 100 µM | > 100 µM | 42.9 µM | 5.24 µM and 1.2 µM | – | 6.12 µM | 4.6 µM | 2.98 µM and 1.44 µM | 3.22 µM | 1.83 µM | 22 µM | 9.82 µM | 4.12 µM and 3.04 µM
COC(=O)C1=CO[C@@H](OC2OC(CO)C(O)C(O)C2O)[C@H]2[C@@H](C)[C@@H](O)[C@@H](O)[C@@H]12 (stereo partly specified) | > 100 µM | > 100 µM | > 100 µM | > 100 µM | > 100 µM | > 100 µM | > 100 µM | – | > 100 µM | > 100 µM | – | – | – | – | – | – | – | – | – | –
Cc1cc(Nc2ncc3c(n2)N(C)C(=O)N(c2cc(NC(=O)c4cccc(C(F)(F)F)c4)ccc2C)C3)n(C)n1 | 0.0458 µM | 0.417 µM | 27.1 µM | > 15.6 µM | 0.206 µM | > 46.4 µM | > 46.4 µM | > 46.4 µM | – | > 100 µM | 0.0158 µM | 0.044 µM | 0.0333 µM | 0.0769 µM | 0.0353 µM | 0.321 µM | 0.624 µM | 0.0832 µM | – | 0.364 µM
O=C([O][Hg][CH2]C1OCCOC1[CH2][Hg][O]C(=O)c1ccccc1)c1ccccc1 (stereo unspecified) | 34.8 µM | 32.8 µM | 8.37 µM | – | 43.9 µM | 30.1 µM | 24.4 µM | 36.2 µM | 12.7 µM | 32.7 µM | 20.3 µM | 16.7 µM | 4.21 µM | – | 16.1 µM | 16.3 µM | 1.97 µM | 19.1 µM | 6.07 µM | 17.6 µM
CONC(C)=O | > 100 µM | > 100 µM | > 100 µM | > 100 µM | > 100 µM | > 100 µM | > 100 µM | > 100 µM | – | > 100 µM | – | – | – | – | – | – | – | – | – | –

Source: PubChem BioAssay (NCI)
